Measured values: patent publication US20230080054A1 (ILDONG PHARMACEUTICAL CO., LTD., priority 2021, published 2023)

The compounds below were run on platelet-rich plasma (PRP) (assay: Recalcification time of rat platelet-rich plasma). Settings: 30 μM, vs 2% DMSO control.
Procedure: Example 5: Recalcification Time
1. Materials and Instruments
Isoflurane (Hana Pharm, cat. #9008), Isotonic Sodium Chloride Injection (Daihan Pharm, cat. #331), Citrate-dextrose solution (Sigma-Aldrich, cat. #C3821), Calcium chloride solution (Sigma-Aldrich, cat. #21115), 22G Syringe 10 mL (Koreavaccine), Dimethyl sulfoxide (Sigma-Aldrich, cat. #D5879), Apixaban (AK scientific, cat. #X1060), 96 Well Cell Culture Plates (SPL Life Sciences, cat. #30096), Synergy H4 Hybrid Microplate Reader (BioTek), Combi R515 Multi-purpose Centrifuge (Hanil Scientific), BS-06 Shaking & Heating Baths (JEIO TECH), and PST-60HL-4 Plate Shaker-Thermostat (Bio-San)
Seven-week-old male SD Rat (ORIENT BIO.) were maintained under controlled conditions of temperature (22±2° C.) and 12-h light/12-h dark cycle. Rats were housed in the pathogen-free facility of the Laboratory Animal Research Center in Ildong Pharmaceutical Co. Ltd. All procedures on animals were conducted in accordance with the relevant national regulatory guidelines and individual experiments approved by the Ildong Pharmaceutical Co. Ltd., Institutional Animal Care and Use Committee (IACUC) (approval No.: A2106-3, 2108-4).
The ability of test compounds to interfere with plasma coagulation, in the presence of platelets, was analyzing by measuring the recalcification time of rat plasma. The blood of animals was collected into 15 mL tubes containing Citrate-dextrose solution (9:1 v/v) before performing the assays. For recalcification time, platelet-rich plasma (PRP) samples were obtained by centrifugation at 360×g for 10 minutes. And the PRP were preincubated for 5 minutes (37° C.). In a 96 well microplate, test compounds (2 μL) were treated in 98 μL of platelet rich plasma. After mixing with a pipette, it was incubated at 37° C. for 15 minutes. The reaction was started by addition of 200 μL of pre-warmed CaCl2) (16 mM). Immediately, put the microplate in a microplate reader and the signals were measured by the following steps.
(1) 405 nm wavelength absorbance signals were recorded in every 10 seconds at 37° C.
(2) Basal absorbance signals were recorded for 0 second.
The signal variance of each of the test compounds was obtained by the following step.
(1) Background signals (t=O) were subtracted from recording values, and the resulting values were converted to change values. The values at 0 second were set to be zero.
The retardation time of test compound were calculated by the following formula:
Retardation time (sec)=[log EC50 (test sample)−log EC50 (DMSO control)]
As described above, a DMSO control group is a group to which 2% DMSO was treated.
The assay result is shown in Table 5, where compounds (30 μM) having less than 20 seconds of retardation time are marked by ‘C’; the compounds (30 μM) having retardation time of 20 seconds or more to less than 50 seconds are marked by ‘B’; and the compounds (30 μM) having retardation time of 50 seconds or more are marked by ‘A’.

| SMILES | Inhibition Level (retardation time, recalcification time) |
| --- | --- |
| O=C(N[C@@H]1C[C@H]1c1ccccc1)c1cccc(Nc2ccc(-c3ccccc3)nn2)c1 [Compound 68, N-[(1R,2S)-2-phenylcyclopropyl]-3-[(6-phenylpyridazin-3-yl)amino]benzamide] | A (the compounds (30 μM) having retardation time of 50 seconds or more) |
| O=C(NCCc1cccc(C(F)(F)F)c1)c1cccc(Nc2ncc(-c3cccc(F)c3)cn2)c1 [Compound 79, 3-{[5-(3-fluorophenyl)pyrimidin-2-yl]amino}-N-{2-[3-(trifluoromethyl)phenyl]ethyl}benzamide] | C (compounds (30 μM) having less than 20 seconds of retardation time) |
| O=C(NCCC1CCCCC1)c1cccc(Nc2ncc(-c3cccc(F)c3)cn2)c1 [Compound 80, N-(2-cyclohexylethyl)-3-{[5-(3-fluorophenyl)pyrimidin-2-yl]amino}benzamide] | C (compounds (30 μM) having less than 20 seconds of retardation time) |
| O=C(Nc1ccc(Cl)c(Cl)c1)c1cccc(Nc2ncc(-c3cccc(F)c3)cn2)c1 [Compound 118, N-(3,4-dichlorophenyl)-3-{[5-(3-fluorophenyl)pyrimidin-2-yl]amino}benzamide] | C (compounds (30 μM) having less than 20 seconds of retardation time) |
| O=C(N[C@@H]1C[C@H]1c1ccccc1)c1cccc(Nc2ncc(-c3cccc(F)c3)cn2)c1 [Compound 119, 3-{[5-(3-fluorophenyl)pyrimidin-2-yl]amino}-N-[(1R,2S)-2-phenylcyclopropyl]benzamide] | C (compounds (30 μM) having less than 20 seconds of retardation time) |
| O=C(Nc1cccc(F)c1)c1cccc(Nc2ccc(-c3cccc(F)c3)cn2)c1 [Compound 122, N-(3-fluorophenyl)-3-{[5-(3-fluorophenyl)pyridin-2-yl]amino}benzamide] | B (the compounds (30 μM) having retardation time of 20 seconds or more to less than 50 seconds) |
| O=C(N[C@@H]1C[C@H]1c1ccccc1)c1cccc(Nc2ccc(-c3cccc(F)c3)cn2)c1 [Compound 123, 3-{[5-(3-fluorophenyl)pyridin-2-yl]amino}-N-[(1R,2S)-2-phenylcyclopropyl]benzamide] | B (the compounds (30 μM) having retardation time of 20 seconds or more to less than 50 seconds) |
